Data: PMC9693455, “Synthesis of Tetrasubstituted Phosphorus Analogs of Aspartic Acid as Antiproliferative Agents” (Molecules, 2022)

What was measured:
[1] = test system: MRC5 lung fibroblast cells; assay: Selective toxicity, CCK-8 assay, non-malignant MRC5 lung fibroblasts; assay type: cell-based; conditions: Homo sapiens; non-malignant MRC5 lung fibroblasts, 48 h exposure, CCK-8
Experimental: (§1) In vitro cytotoxicity of the phosphorated aspartic acid derivatives was evaluated by testing their antiproliferative activities against several human cancer cell lines. Cell counting kit (CCK-8) assay was used for the evaluation of growth inhibition. […] In addition, trisubstituted aminophosphonate 9a (Imine precursor, R^1 = H, R^2 = P(O)(OMe)2) and tetrasubstituted aminophosphonate 18 (R^1 = Me, R^2 = P(O)(OMe)2) are used as templates in order to evaluate the effect of the substituents (Table 1).
(§2) Human epithelial lung carcinoma cells (A549) (ATCC® CCL-185™, ATCC, Manassas, VA, USA) were grown in Kaighn’s Modification of Ham’s F-12 Medium (ATCC® 30-2004™, ATCC, Manassas, VA, USA) and lung fibroblast cells (MRC5) (ATCC® CCL-171™, ATCC, Manassas, VA, USA) were grown in Eagle’s Minimum Essential Medium (EMEM, ATCC® 30-2003™, ATCC, Manassas, VA, USA). Epithelial ovary adenocarcinoma cells (SKOV3) (ATCC® HTB-77™, ATCC, Manassas, VA, USA) were grown in McCoy’s 5A medium (ATCC® 30-2007™, ATCC, Manassas, VA, USA). All of them were supplemented with 10% of fetal bovine serum (FBS) (Sigma-Aldrich, Madrid, Spain) and with 1% of NORMOCIN solution (Thermo Fisher, Waltham, MA, USA). Cells were incubated at 37 °C and 5% CO2 atmosphere, and were split every 3–4 days to maintain monolayer coverage. For the cytotoxicity experiments, the A549 and SKOV3 cells were seeded in 96-well plates at a density of 2.5–3 × 10^3 cells per well and incubated overnight to achieve 70% of confluence at the time of exposition to the cytotoxic compound.
(§3) Cells were exposed to different concentrations of the cytotoxic compounds and were incubated for 48 h. Then, 10 µL of cell counting kit-8 was added into each well for an additional two hours’ incubation at 37 °C. The absorbance of each well was determined by an Automatic Elisa Reader System (Thermo Scientific Multiskan FC Automatic Elisa Reader System, Thermo Scientific, Shanghai, China) at 450 nm wavelength.

[2] = test system: SKOV3 (human ovarian carcinoma) cells; assay: In vitro cytotoxicity (antiproliferative activity), CCK-8 assay, SKOV3; assay type: cell-based; conditions: Homo sapiens, SK-OV-3, 48 h exposure, CCK-8
Experimental: as §1, §2, §3

[3] = test system: A549 (carcinomic human alveolar basal epithelial) cells; assay: In vitro cytotoxicity (antiproliferative activity), CCK-8 assay, A549; assay type: cell-based; conditions: Homo sapiens, A549, 48 h, 48 h exposure, CCK-8
Experimental: as §1, §2, §3

Row | Compound | IC50 [1] [µM] | IC50 [2] [µM] | IC50 [3] [µM] | melting point [°C]
1 | CCOC(=O)CC(NS(=O)(=O)c1ccc(C)cc1)(c1ccc(F)cc1)P(=O)(OC)OC (stereo not shown) [7j, Ethyl 3-(dimethoxyphosphoryl)-3-(4-fluorophenyl)-3-((4-methylphenyl)sulfonamido)propanoate] | > 50 | > 50 | 7.15 ± 0.24 | 111 to 112
2 | CCOC(=O)CC(NS(=O)(=O)c1ccc(C)cc1)(c1ccc(Cl)s1)P(=O)(OC)OC (stereo not shown) [7r, Ethyl 3-(5-chlorothiophen-2-yl)-3-(dimethoxyphosphoryl)-3-((4-methylphenyl)sulfonamido)propanoate] | > 50 | 11.8 ± 0.6 | 1.04 ± 0.28 | 93 to 94
3 | CCOC(=O)CC(NS(=O)(=O)c1ccc(C)cc1)(c1ccc(Br)cc1)P(=O)(OC)OC (stereo not shown) [7e, Ethyl 3-(4-bromophenyl)-3-(dimethoxyphosphoryl)-3-((4-methylphenyl)sulfonamido)propanoate] | > 50 | > 50 | 1.08 ± 0.09 | 138 to 139
4 | CCOC(=O)CC(NS(=O)(=O)c1ccc(C)cc1)(c1ccc(F)cc1F)P(=O)(OC)OC (stereo not shown) [7m, Ethyl 3-(2,4-difluorophenyl)-3-(dimethoxyphosphoryl)-3-((4-methylphenyl)sulfonamido)propanoate] | > 50 | > 50 | 2.24 ± 0.31 | 135 to 136
5 | COP(=O)(OC)C(CC(=O)OCc1ccccc1)(NS(=O)(=O)c1ccc(C)cc1)c1ccccc1 (stereo not shown) [13b, Benzyl 3-(dimethoxyphosphoryl)-3-((4-methylphenyl)sulfonamido)-3-phenylpropanoate] | > 50 | > 50 | 5.2 ± 0.16 | 84 to 85
6 | CCOC(=O)CC(NS(=O)(=O)c1ccc(C)cc1)(c1ccccc1F)P(=O)(OC)OC (stereo not shown) [7l, Ethyl 3-(dimethoxyphosphoryl)-3-(2-fluorophenyl)-3-((4-methylphenyl)sulfonamido)propanoate] | > 50 | > 50 | 0.9 ± 0.12 | 140 to 141
7 | CCOC(=O)CC(NS(=O)(=O)c1ccc(C)cc1)(c1ccc(SC(Cl)(Cl)Cl)cc1)P(=O)(OC)OC (stereo not shown) [7d, Ethyl 3-(dimethoxyphosphoryl)-3-((4-methylphenyl)sulfonamido)-3-(4-((trichloromethyl)thio)phenyl)propanoate] | 2.47 ± 0.3 | 6.43 ± 0.64 | 4.41 ± 0.29 | 123 to 124
